Test results reported in PMC11597202, “Novel Thiazole-Fused [4,5-g] or [5,4-g]Quinazolin-8-ones and Their Quinazoline Analogues: Synthesis and Biological Evaluation” (Pharmaceuticals, 2024).

What was measured:
CK-1ε = biological target: T1, CK-1ε (Homo sapiens, UniProt P49674); test: ADP-Glo kinase inhibition assay, CK-1ε; type: biochemical; settings: percentage of maximum activity of the DMSO control, mean n = 2, 10 µM ATP, read-out: Residual activity CK-1ε; for remaining activity at 1 µM: 1 μM compound; for remaining activity at 10 µM: 10 μM compound
T1 construct: host or cells: Sf9 insect cells (baculovirus)
Method: (§1) Kinase enzymatic activities were assayed in 384-well plates using the ADP-Glo^TM assay kit (Promega, Madison, WI, USA) according to the recommendations of the manufacturer. This luminescent ADP detection assay was described by Zegzouti and co-workers and provides a homogeneous and high-throughput screening method to measure kinase activity by quantifying the amount of ADP produced during a kinase reaction. Briefly, the reactions were carried out in a final volume of 6 µL for 30 min at 30 °C in an appropriate kinase buffer (10 mM MgCl2, 1 mM EGTA, 1 mM DTT, 25 mM Tris-HCl pH 7.5, 50 µg/mL heparin), with peptide or protein as substrate in the presence of 10 µM ATP. Peptide substrates were obtained from ProteoGenix (Schiltigheim, France) or Sigma for Histone H1, Poly (L-glutamic acid–L-tyrosine) sodium salt, Casein and MBP. After that, 6 µL of ADP-Glo^TM Kinase Reagent was added to stop the kinase reaction. After an incubation time of 50 min at room temperature (rt), 12 µL of Kinase Detection Reagent was added for one hour at rt. The transmitted signal was measured using the Envision (PerkinElmer, Waltham, MA, USA) microplate luminometer and expressed as Relative Light Units (RLUs). Kinase activities are expressed as percentages of remaining kinase activities detected after treatment with 1 or 10 µM of the tested compounds. The maximum kinase activity was measured in the absence of inhibitor but with an equivalent dose of DMSO (solvent of the tested compounds).
(§2) 3. Kinase inhibition assays
(§3) Kinase enzymatic activities were assayed in 384-well plates using the ADP-GloTM assay kit (Promega, Madison, WI) according to the recommendations of the manufacturer. This luminescent ADP detection assay was described by Zegzouti and co-workers and provides a homogeneous and high-throughput screening method to measure kinase activity by quantifying the amount of ADP produced during a kinase reaction. Briefly, the reactions were carried out in a final volume of 6 µl for 30 min at 30°C in appropriate kinase buffer (10 mM MgCl2, 1 mM EGTA, 1 mM DTT, 25 mM Tris-HCl pH 7.5, 50 µg/mL heparin), with peptide or protein as substrate in the presence of 10 µM ATP. Peptide substrates were obtained from ProteoGenix (Schiltigheim, France) or Sigma for Histone H1, Poly (L-glutamic acid – L-tyrosine) sodium salt, Casein and MBP. After that, 6 µL of ADP-GloTM Kinase Reagent was added to stop the kinase reaction. After an incubation time of 50 min at room temperature (rt), 12 µL of Kinase Detection Reagent was added for 1 h at rt. The transmitted signal was measured using the Envision (PerkinElmer, Waltham, MA) microplate luminometer and expressed in Relative Light Unit (RLU). Kinase activities are expressed in percentages of remaining kinase activities detected after treatment with 1 or 10 µM of the tested compounds. The maximal kinase activity is measured in the absence of inhibitor but with an equivalent dose of DMSO (solvent of the tested compounds).
(§4) Table. Human protein kinases tested in the panel: CDK9, HASPIN, PIM1, GSK3b, CK1ε, JAK3, CLK1 […]
(§5) 1 Peptide substrates were obtained from ProteoGenix (Schiltigheim, France) or Sigma for Histone H1, Poly (L-glutamic acid – L-tyrosine) sodium salt, Casein and MBP; 2 “Sp” stands for phosphorylated serine.
(§6) Controls inhibitors: To validate each kinase assay, the following model inhibitors were used under the same conditions than the tested compounds: Staurosporine from Streptomyces sp.

[1] = In vitro cytotoxic assay, HCT-116; type: cell-based; settings: human, HCT-116 cells (colon cancer cell line)
Method: Skin normal fibroblastic cells were purchased from Lonza (Basel, Switzerland). […] All culture media were supplemented by 10% of FBS, 1% of penicillin–streptomycin and 2 mM glutamine.
Chemicals were solubilized in DMSO at a concentration of 10 mM (stock solution) and diluted in culture medium to the desired final concentrations. […] Cells were plated in 96-well plates (4000 cells/well). Twenty-four hours after seeding, the cells were exposed to chemicals. […] Image acquisition and analysis were performed using a Cellomics ArrayScan VTI/HCS Reader (ThermoScientific, Les Ulis, France). The survival percentages were calculated as the percentage of cell number after compound treatment over cell number after DMSO treatment. The relative IC50 values were calculated using the curve fitting XLfit 5.5.0.5 (idbs) integrated in Microsoft Excel as an add-on.
4.3.1. Cell culture. Skin normal fibroblastic cells are purchased from Lonza (Basel, Switzerland). Huh7- […]
from ATCC (American Type Culture Collection). […]
supplemented by 10% of FBS, 1% of penicillin-streptomycin and 2 mM glutamine.
4.3.2. Cytotoxic assay. Chemicals were solubilized in DMSO at a concentration of 10 mM (stock solution) and diluted in culture medium to the desired final concentrations. The dose effect cytotoxic assays (IC50 determination) were performed by increasing the concentrations of each chemical (final well […]
Cells were plated in 96-well plates
(4000 cells/well). Twenty-four hours after seeding, cells were exposed to chemicals. After 48h of treatment, cells were washed in PBS and fixed in cooled 90% ethanol/5% acetic acid for 20 min and the […]
Image acquisition and analysis were performed using a Cellomics ArrayScan VTI/HCS Reader (ThermoScientific). The survival percentages were calculated as the percentage of cell number after compound treatment over cell number after DMSO treatment. The relative IC50 were calculated using the curve fitting XLfit 5.5.0.5 (idbs) integrated in Microsoft Excel as an add-on. The 4 Parameter Logistic Model or Sigmoidal Dose-Response Model describing the sigmoid-shaped response pattern was used (fit = (A+[(B-A)/(1+[(C/x)^D])]) where fit is the response and X is the tested concentration of the compound. The lower asymptote is A (also referred to as the bottom of the curve or lower plateau or the min) and the upper asymptote is B (also referred to as the top of the curve or upper plateau or the max). The slope of the linear part of the curve is described by the factor D. The parameter C is the concentration corresponding to the response midway between A and B. C is called “relative IC50” because it refers to the maximum response obtained by a […]
The results are represented as the mean ± standard error (SE) calculated from at least three independent experiments.

DYRK1A = biological target: T2, DYRK1A (Homo sapiens, UniProt Q13627); test: ADP-Glo kinase inhibition assay, DYRK1A; type: biochemical; settings: percentage of maximum activity of the DMSO control, mean n = 2, 10 µM ATP, read-out: Residual activity DYRK1A; for remaining activity at 1 µM: 1 μM compound; for remaining activity at 10 µM: 10 μM compound
T2 construct: host or cells: Sf9 insect cells (baculovirus)
Method: as §1, §2, §3, §4, §5, §6

GSK-3β = biological target: T3, GSK-3β (Homo sapiens, UniProt P49841); test: ADP-Glo kinase inhibition assay, GSK-3β; type: biochemical; settings: percentage of maximum activity of the DMSO control, mean n = 2, 10 µM ATP, read-out: Residual activity GSK-3β; for remaining activity at 1 µM: 1 μM compound; for remaining activity at 10 µM: 10 μM compound
T3 construct: host or cells: Sf9 insect cells (baculovirus)
Method: as §1, §2, §3, §4, §5, §6

T3 sequence (P49841 whole entry): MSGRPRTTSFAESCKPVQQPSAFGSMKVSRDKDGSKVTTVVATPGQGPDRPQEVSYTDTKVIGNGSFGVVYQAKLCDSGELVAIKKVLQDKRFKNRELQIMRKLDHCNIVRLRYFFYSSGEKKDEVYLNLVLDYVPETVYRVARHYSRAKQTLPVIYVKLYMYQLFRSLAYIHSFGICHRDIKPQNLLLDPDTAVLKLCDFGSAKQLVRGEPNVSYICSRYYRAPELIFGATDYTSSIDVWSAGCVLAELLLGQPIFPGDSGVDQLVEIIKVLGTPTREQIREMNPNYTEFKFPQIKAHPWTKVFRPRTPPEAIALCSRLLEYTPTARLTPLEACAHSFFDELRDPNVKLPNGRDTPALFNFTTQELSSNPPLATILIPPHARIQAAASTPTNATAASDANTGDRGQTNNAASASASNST
T1 sequence (P49674 whole entry): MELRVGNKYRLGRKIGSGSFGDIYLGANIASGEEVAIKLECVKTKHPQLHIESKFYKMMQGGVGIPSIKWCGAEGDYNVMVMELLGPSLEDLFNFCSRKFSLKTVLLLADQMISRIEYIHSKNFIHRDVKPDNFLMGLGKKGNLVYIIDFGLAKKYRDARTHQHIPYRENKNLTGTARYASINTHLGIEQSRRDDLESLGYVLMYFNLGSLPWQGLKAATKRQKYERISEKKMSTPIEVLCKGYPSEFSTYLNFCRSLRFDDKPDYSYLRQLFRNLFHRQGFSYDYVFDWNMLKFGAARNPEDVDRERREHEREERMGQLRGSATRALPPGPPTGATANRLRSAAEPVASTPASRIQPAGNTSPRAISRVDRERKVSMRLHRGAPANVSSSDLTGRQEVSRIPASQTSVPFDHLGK

Row | remaining activity at 1 µM (CK-1ε) | remaining activity at 10 µM (CK-1ε) | remaining activity at 1 µM (DYRK1A) | remaining activity at 10 µM (DYRK1A) | remaining activity at 1 µM (GSK-3β) | remaining activity at 10 µM (GSK-3β) | Compound | IC50 at 48 h [1]
1 | 95% | 72% | 72% | 27% | 90% | 70% | COC(=N)c1nc2cc3c(Nc4ccc(OC)cc4F)ncnc3cc2s1 [Compound 15a, Methyl 8-[(2-fluoro-4-methoxyphenyl)amino]thiazolo[4,5-g]quinazoline-2-carbimidate] | 8 µM
2 | 98% | 108% | 95% | 101% | 101% | 104% | COC(=N)c1nc2cc3ncnc(Nc4ccc(OC)cc4F)c3cc2s1 [Compound 15b, Methyl 8-[(2-fluoro-4-methoxyphenyl)amino]thiazolo[5,4-g]quinazoline-2-carbimidate] | 

More lines, now with the values behind:

Row | Compound | remaining activity at 1 µM (CK-1ε) | remaining activity at 10 µM (CK-1ε) | remaining activity at 1 µM (DYRK1A) | remaining activity at 10 µM (DYRK1A) | remaining activity at 1 µM (GSK-3β) | remaining activity at 10 µM (GSK-3β) | IC50 at 48 h [1]
3 | COC(=N)c1nc2cc3c(=O)n(Cc4ccccc4)cnc3cc2s1 [Compound 6a, Methyl 7-benzyl-8-oxo-7,8-dihydrothiazolo[4,5-g]quinazoline-2-carbimidate] | 100% | 69% | 100% | 103% | 94% | 76% | 20 µM
4 | COC(=N)c1nc2cc3ncn(Cc4ccccc4)c(=O)c3cc2s1 [Compound 6b, Methyl 7-benzyl-8-oxo-7,8-dihydrothiazolo[5,4-g]quinazoline-2-carbimidate] | 111% | 103% | 103% | 109% | 101% | 107% | 1 µM
5 | COC(=N)c1nc2c(ccc3c(=O)n(Cc4ccccc4)cnc32)s1 [Compound 6c, Methyl 7-benzyl-6-oxo-6,7-dihydrothiazolo[5,4-h]quinazoline-2-carbimidate] | 112% | 87% | 100% | 68% | 81% | 91% | 3 µM
6 | COC(=N)c1nc2ccc3c(=O)n(Cc4ccccc4)cnc3c2s1 [Compound 6d, Methyl 7-benzyl-6-oxo-6,7-dihydrothiazolo[4,5-h]quinazoline-2-carbimidate] | 92% | 98% | 83% | 63% | 94% | 105% | 2 µM
7 | COC(=N)c1nc2ccc3ncn(Cc4ccccc4)c(=O)c3c2s1 [Compound I, methyl 8-benzyl-9-oxo-8,9-dihydrothiazolo[5,4-f]quinazoline-2-carbimidate, reference compound] | 92% | 70% | 62% | 21% | 73% | 23% | 18 µM
8 | COC(=N)c1nc2ccc3ncnc(Nc4ccc(OC)cc4F)c3c2s1 [Compound II, methyl 9-[(2-fluoro-4-methoxyphenyl)amino]thiazolo[5,4-f]quinazoline-2-carbimidate, reference compound] |  |  |  |  |  |  | 4 µM
